Assay results from patent publication US7785828B1 (priority 2003, dated 2010).

What was measured:
Type in all cases: cell-based
[1] = tested on: Fusarium graminearum
[2] = tested on: Mycosphaerella fijiensis
[3] = tested on: Septoria tritici

In the case of “NLCERASKTWSGNCGNTKHCDTQCRNWEGAKHGACHVRSGKHKCFCYFNC (Defensin like) [L9-27]”, the “Antifungal activity, Fusarium graminearum (improvement compared to DmAMP1)” value [1] is reported as “++ (key: + indicating 1- to 5-fold improvement compared to DmAMP1; ++ indicating >5- to 10-fold improvement; +++ indicating >10-fold improvement)”, the “Antifungal activity, Mycosphaerella fijiensis (improvement compared to DmAMP1)” value [2] is reported as “++ (key: + indicating 1- to 5-fold improvement compared to DmAMP1; ++ indicating >5- to 10-fold improvement; +++ indicating >10-fold improvement)” and the “Antifungal activity, Septoria tritici (improvement compared to DmAMP1)” value [3] is reported as “++ (key: + indicating 1- to 5-fold improvement compared to DmAMP1; ++ indicating >5- to 10-fold improvement; +++ indicating >10-fold improvement)”.
“DGVKLCEKASQTWSGHCGNTKHCDNQCKNWEGAKHGACHKRSGKWKCFCYFNC (Defensin like) [L7-422]” was tested, and the “Antifungal activity, Fusarium graminearum (improvement compared to DmAMP1)” value [1] was “+ (key: + indicating 1- to 5-fold improvement compared to DmAMP1; ++ indicating >5- to 10-fold improvement; +++ indicating >10-fold improvement)”, the “Antifungal activity, Mycosphaerella fijiensis (improvement compared to DmAMP1)” value [2] was “+ (key: + indicating 1- to 5-fold improvement compared to DmAMP1; ++ indicating >5- to 10-fold improvement; +++ indicating >10-fold improvement)” and the “Antifungal activity, Septoria tritici (improvement compared to DmAMP1)” value [3] was “+ (key: + indicating 1- to 5-fold improvement compared to DmAMP1; ++ indicating >5- to 10-fold improvement; +++ indicating >10-fold improvement)”.
For “DGVKLCERPSKTWSGHCGNTKHCDKQCRSWEGAAHGACHVRNGKWKCFCYFNC (Defensin like) [L7-94]”, the “Antifungal activity, Fusarium graminearum (improvement compared to DmAMP1)” value [1] was “++ (key: + indicating 1- to 5-fold improvement compared to DmAMP1; ++ indicating >5- to 10-fold improvement; +++ indicating >10-fold improvement)”, the “Antifungal activity, Mycosphaerella fijiensis (improvement compared to DmAMP1)” value [2] was “+ (key: + indicating 1- to 5-fold improvement compared to DmAMP1; ++ indicating >5- to 10-fold improvement; +++ indicating >10-fold improvement)” and the “Antifungal activity, Septoria tritici (improvement compared to DmAMP1)” value [3] was “+ (key: + indicating 1- to 5-fold improvement compared to DmAMP1; ++ indicating >5- to 10-fold improvement; +++ indicating >10-fold improvement)”.
In the case of “NLCEKASKTWTGNCGNTKHCDTQCKNWEGAKHGACHKRNGKWKCFCYFNC (Defensin like) [L9-45]”, the “Antifungal activity, Fusarium graminearum (improvement compared to DmAMP1)” value [1] is reported as “+ (key: + indicating 1- to 5-fold improvement compared to DmAMP1; ++ indicating >5- to 10-fold improvement; +++ indicating >10-fold improvement)”, the “Antifungal activity, Mycosphaerella fijiensis (improvement compared to DmAMP1)” value [2] is reported as “+ (key: + indicating 1- to 5-fold improvement compared to DmAMP1; ++ indicating >5- to 10-fold improvement; +++ indicating >10-fold improvement)” and the “Antifungal activity, Septoria tritici (improvement compared to DmAMP1)” value [3] is reported as “+ (key: + indicating 1- to 5-fold improvement compared to DmAMP1; ++ indicating >5- to 10-fold improvement; +++ indicating >10-fold improvement)”.
In the case of “NLCERASKTWSGNCGNTKHCDTQCRSWEGAAHGACHKRSGKWKCFCYFNC (Defensin like) [L9-41]”, the “Antifungal activity, Fusarium graminearum (improvement compared to DmAMP1)” value [1] is reported as “++ (key: + indicating 1- to 5-fold improvement compared to DmAMP1; ++ indicating >5- to 10-fold improvement; +++ indicating >10-fold improvement)”, the “Antifungal activity, Mycosphaerella fijiensis (improvement compared to DmAMP1)” value [2] is reported as “+ (key: + indicating 1- to 5-fold improvement compared to DmAMP1; ++ indicating >5- to 10-fold improvement; +++ indicating >10-fold improvement)” and the “Antifungal activity, Septoria tritici (improvement compared to DmAMP1)” value [3] is reported as “+ (key: + indicating 1- to 5-fold improvement compared to DmAMP1; ++ indicating >5- to 10-fold improvement; +++ indicating >10-fold improvement)”.
For “NLCERASKTWSGNCGNTKHCDTQCRNWEGAKHGACHKRSGKWKCFCYFNC (Defensin like) [L9-09]”, the “Antifungal activity, Fusarium graminearum (improvement compared to DmAMP1)” value [1] was “+++ (key: + indicating 1- to 5-fold improvement compared to DmAMP1; ++ indicating >5- to 10-fold improvement; +++ indicating >10-fold improvement)”, the “Antifungal activity, Mycosphaerella fijiensis (improvement compared to DmAMP1)” value [2] was “+ (key: + indicating 1- to 5-fold improvement compared to DmAMP1; ++ indicating >5- to 10-fold improvement; +++ indicating >10-fold improvement)” and the “Antifungal activity, Septoria tritici (improvement compared to DmAMP1)” value [3] was “+ (key: + indicating 1- to 5-fold improvement compared to DmAMP1; ++ indicating >5- to 10-fold improvement; +++ indicating >10-fold improvement)”.
“DGVKLCERPSKTWSGNCGNTKHCDKQCKNWEKAKHGACHVRNGKWKCFCYFNC (Defensin like) [L7-112]” was tested, and the “Antifungal activity, Fusarium graminearum (improvement compared to DmAMP1)” value [1] was “+ (key: + indicating 1- to 5-fold improvement compared to DmAMP1; ++ indicating >5- to 10-fold improvement; +++ indicating >10-fold improvement)”, the “Antifungal activity, Mycosphaerella fijiensis (improvement compared to DmAMP1)” value [2] was “+ (key: + indicating 1- to 5-fold improvement compared to DmAMP1; ++ indicating >5- to 10-fold improvement; +++ indicating >10-fold improvement)” and the “Antifungal activity, Septoria tritici (improvement compared to DmAMP1)” value [3] was “+ (key: + indicating 1- to 5-fold improvement compared to DmAMP1; ++ indicating >5- to 10-fold improvement; +++ indicating >10-fold improvement)”.
With “NLCERASKTWSGNCGNTKHCDTQCKSWEGAKHGACHVRNGKHKCFCYFNC (Defensin like) [L9-26]” the “Antifungal activity, Fusarium graminearum (improvement compared to DmAMP1)” value [1] was “+++ (key: + indicating 1- to 5-fold improvement compared to DmAMP1; ++ indicating >5- to 10-fold improvement; +++ indicating >10-fold improvement)”, the “Antifungal activity, Mycosphaerella fijiensis (improvement compared to DmAMP1)” value [2] was “++ (key: + indicating 1- to 5-fold improvement compared to DmAMP1; ++ indicating >5- to 10-fold improvement; +++ indicating >10-fold improvement)” and the “Antifungal activity, Septoria tritici (improvement compared to DmAMP1)” value [3] was “+++ (key: + indicating 1- to 5-fold improvement compared to DmAMP1; ++ indicating >5- to 10-fold improvement; +++ indicating >10-fold improvement)”.
For “NLCERASKTWSGNCGNTKHCDNQCKSWEGAAHGACHVRNGKHKCFCYFNC (Defensin like) [L6-61]”, the “Antifungal activity, Fusarium graminearum (improvement compared to DmAMP1)” value [1] was “+++ (key: + indicating 1- to 5-fold improvement compared to DmAMP1; ++ indicating >5- to 10-fold improvement; +++ indicating >10-fold improvement)”, the “Antifungal activity, Mycosphaerella fijiensis (improvement compared to DmAMP1)” value [2] was “+ (key: + indicating 1- to 5-fold improvement compared to DmAMP1; ++ indicating >5- to 10-fold improvement; +++ indicating >10-fold improvement)” and the “Antifungal activity, Septoria tritici (improvement compared to DmAMP1)” value [3] was “++ (key: + indicating 1- to 5-fold improvement compared to DmAMP1; ++ indicating >5- to 10-fold improvement; +++ indicating >10-fold improvement)”.
For “DGVKLCEKASQTWSGHCGNTKHCDNQCKNWEGAKHGACHKRNGKWKCFCYFNC [L7-434] (Defensin like)”, the “Antifungal activity, Fusarium graminearum (improvement compared to DmAMP1)” value [1] was “+++ (key: + indicating 1- to 5-fold improvement compared to DmAMP1; ++ indicating >5- to 10-fold improvement; +++ indicating >10-fold improvement)”, the “Antifungal activity, Mycosphaerella fijiensis (improvement compared to DmAMP1)” value [2] was “+ (key: + indicating 1- to 5-fold improvement compared to DmAMP1; ++ indicating >5- to 10-fold improvement; +++ indicating >10-fold improvement)” and the “Antifungal activity, Septoria tritici (improvement compared to DmAMP1)” value [3] was “+ (key: + indicating 1- to 5-fold improvement compared to DmAMP1; ++ indicating >5- to 10-fold improvement; +++ indicating >10-fold improvement)”.
With “NLCERASKTWSGNCGNTKHCDNQCRSWEGAKHGACHVRSGKHKCFCYFNC (Defensin like) [L9-16]” the “Antifungal activity, Fusarium graminearum (improvement compared to DmAMP1)” value [1] was “+++ (key: + indicating 1- to 5-fold improvement compared to DmAMP1; ++ indicating >5- to 10-fold improvement; +++ indicating >10-fold improvement)”, the “Antifungal activity, Mycosphaerella fijiensis (improvement compared to DmAMP1)” value [2] was “+ (key: + indicating 1- to 5-fold improvement compared to DmAMP1; ++ indicating >5- to 10-fold improvement; +++ indicating >10-fold improvement)” and the “Antifungal activity, Septoria tritici (improvement compared to DmAMP1)” value [3] was “++ (key: + indicating 1- to 5-fold improvement compared to DmAMP1; ++ indicating >5- to 10-fold improvement; +++ indicating >10-fold improvement)”.
In the case of “NLCERASKTWSGNCGNTKHCDTQCRNWEGAKHGACHKRNGKWKCFCYFNC (Defensin like) [L9-32]”, the “Antifungal activity, Fusarium graminearum (improvement compared to DmAMP1)” value [1] is reported as “++ (key: + indicating 1- to 5-fold improvement compared to DmAMP1; ++ indicating >5- to 10-fold improvement; +++ indicating >10-fold improvement)”, the “Antifungal activity, Mycosphaerella fijiensis (improvement compared to DmAMP1)” value [2] is reported as “+ (key: + indicating 1- to 5-fold improvement compared to DmAMP1; ++ indicating >5- to 10-fold improvement; +++ indicating >10-fold improvement)” and the “Antifungal activity, Septoria tritici (improvement compared to DmAMP1)” value [3] is reported as “+ (key: + indicating 1- to 5-fold improvement compared to DmAMP1; ++ indicating >5- to 10-fold improvement; +++ indicating >10-fold improvement)”.
For “NLCERASKTWSGNCGNTKHCDNQCRNWEGAKHGACHVRNGKWKCFCYFNC [L6-40] (Defensin like)”, the “Antifungal activity, Fusarium graminearum (improvement compared to DmAMP1)” value [1] was “+++ (key: + indicating 1- to 5-fold improvement compared to DmAMP1; ++ indicating >5- to 10-fold improvement; +++ indicating >10-fold improvement)”, the “Antifungal activity, Mycosphaerella fijiensis (improvement compared to DmAMP1)” value [2] was “+ (key: + indicating 1- to 5-fold improvement compared to DmAMP1; ++ indicating >5- to 10-fold improvement; +++ indicating >10-fold improvement)” and the “Antifungal activity, Septoria tritici (improvement compared to DmAMP1)” value [3] was “+++ (key: + indicating 1- to 5-fold improvement compared to DmAMP1; ++ indicating >5- to 10-fold improvement; +++ indicating >10-fold improvement)”.
For “NLCEKASKTWSGNCGNTKHCDTQCRNWEGAKHGACHKRNGKWKCFCYFNC (Defensin like) [L9-46]”, the “Antifungal activity, Fusarium graminearum (improvement compared to DmAMP1)” value [1] was “+++ (key: + indicating 1- to 5-fold improvement compared to DmAMP1; ++ indicating >5- to 10-fold improvement; +++ indicating >10-fold improvement)”, the “Antifungal activity, Mycosphaerella fijiensis (improvement compared to DmAMP1)” value [2] was “++ (key: + indicating 1- to 5-fold improvement compared to DmAMP1; ++ indicating >5- to 10-fold improvement; +++ indicating >10-fold improvement)” and the “Antifungal activity, Septoria tritici (improvement compared to DmAMP1)” value [3] was “+++ (key: + indicating 1- to 5-fold improvement compared to DmAMP1; ++ indicating >5- to 10-fold improvement; +++ indicating >10-fold improvement)”.
For “NLCERASKTWSGNCGNTKHCDTQCRNWEGAAHGACHVRNGKHKCFCYFNC (NLCERASKTWSGNCGNTKHCDTQCKNWEGAAHGACHVRNGKHKCFCYFNC; Defensin like) [L6-57]”, the “Antifungal activity, Fusarium graminearum (improvement compared to DmAMP1)” value [1] was “+++ (key: + indicating 1- to 5-fold improvement compared to DmAMP1; ++ indicating >5- to 10-fold improvement; +++ indicating >10-fold improvement)”, the “Antifungal activity, Mycosphaerella fijiensis (improvement compared to DmAMP1)” value [2] was “++ (key: + indicating 1- to 5-fold improvement compared to DmAMP1; ++ indicating >5- to 10-fold improvement; +++ indicating >10-fold improvement)” and the “Antifungal activity, Septoria tritici (improvement compared to DmAMP1)” value [3] was “+ (key: + indicating 1- to 5-fold improvement compared to DmAMP1; ++ indicating >5- to 10-fold improvement; +++ indicating >10-fold improvement)”.
With “NLCEKASKTWTGNCGNTKHCDTQCRNWEGAKHGACHKRNGKWKCFCYFNC (Defensin like) [L6-32]” the “Antifungal activity, Fusarium graminearum (improvement compared to DmAMP1)” value [1] was “+++ (key: + indicating 1- to 5-fold improvement compared to DmAMP1; ++ indicating >5- to 10-fold improvement; +++ indicating >10-fold improvement)”, the “Antifungal activity, Mycosphaerella fijiensis (improvement compared to DmAMP1)” value [2] was “+++ (key: + indicating 1- to 5-fold improvement compared to DmAMP1; ++ indicating >5- to 10-fold improvement; +++ indicating >10-fold improvement)” and the “Antifungal activity, Septoria tritici (improvement compared to DmAMP1)” value [3] was “+++ (key: + indicating 1- to 5-fold improvement compared to DmAMP1; ++ indicating >5- to 10-fold improvement; +++ indicating >10-fold improvement)”.
